The values below come from patent US8420865B2, “Phosphine compound, process for producing the same, and peroxide scavenger using the same” (Fukuoka University, priority 2008, dated 2013).

The subject of assay [1] is HepG2 cells. In words: Loading of MitoDPPP into HepG2 cells, fluorescence microscopy, comparison with Mito Tracker Green FM. Conditions: fluorescence microscope, comparison/double-staining with mitochondria-selective fluorescent dye, FIG. 2. It is filed as cell-based. Here is the method:
Loading of MitoDPPP into HepG2 cells was examined. A 20% dimethylsulfoxide solution of MitoDPPP (16 μM) was prepared and the solution was loaded into HepG2 cells for 10 minutes to stain the cells. After washing with PBS, the cells were observed under a fluorescence microscope.

Assay [2] concerns HepG2 cells. As to the kind of experiment: Oxidation of MitoDPPP loaded into HepG2 cells, hydrogen peroxide compared with tBHP, microplate reader. Format: cell-based. To be noted: MitoDPPP 16 μM loaded 10 minutes, FIG. 4. Here is the method:
The oxidation of MitoDPPP loaded into HepG2 cells was compared for hydrogen peroxide and tBHP. A 0.1% dimethylsulfoxide solution of MitoDPPP (16 μM) was prepared. The solution was loaded into HepG2 cells for 10 minutes. After washing the cells with PBS, hydrogen peroxide was added to the cells and the increase in fluorescence intensity was monitored on a microplate reader.

For assay [3], the system named is HepG2 cells. As to the kind of experiment: Loading into HepG2 cells and oxidation stimulated with tert-butoxyhydroperoxide (tBHP), fluorescence microscopy. It is filed as cell-based. Conditions: MitoDPPP 16 μM loaded 2 minutes, ten minutes after tBHP, FIG. 3. As to the method: Loading of MitoDPPP into HepG2 cells and oxidation stimulated with tert-butoxyhydroperoxide (tBHP) were monitored. A 0.1% dimethylsulfoxide solution of MitoDPPP (16 μM) was prepared. The solution was loaded into HepG2 cells for 2 minutes to stain the cells. The cells were washed with PBS and observed under a fluorescence microscope. Next, tert-butoxyhydroperoxide (tBHP) was added to the cells. Ten minutes later, the cells were observed under the fluorescence microscope.

The nature of assay [4]: Oxidation of MitoDPPP with hydrogen peroxide in dimethylsulfoxide solution, fluorescence intensity over time. To be noted: MitoDPPP 16 μM in dimethylsulfoxide, 10 mM H2O2, 10 minutes, FIG. 1. As to the method: The time scale changes in fluorescence intensity were monitored for the oxidation with hydrogen peroxide of [3-(4-Phenoxyphenylphosphinopyrenylphosphino)propyl]triphenylphosphonium iodide [Ia] (MitoDPPP) obtained in EXAMPLE 1.
After 10 mM H2O2 was added dropwise to a dimethylsulfoxide solution of MitoDPPP (16 μM), fluorescence intensities at the fluorescence wavelength of 380 nm were measured for 10 minutes.

A short description of assay [5]: Oxidation of MitoDPPP in an aqueous solution with hydrogen peroxide and tBHP. Conditions: FIG. 4.

On to `[I-].c1ccc(Oc2ccc(P(CCC[P+](c3ccccc3)(c3ccccc3)c3ccccc3)c3ccc4ccc5cccc6ccc3c4c56)cc2)cc1` (stereo not drawn) [MitoDPPP], for which, in assay [1], the localization in cells result is “localized in mitochondria”. Moreover, in assay [2], the “oxidation with hydrogen peroxide of MitoDPPP loaded into HepG2 cells” value was “not oxidized”. The “brightness of stained cells after tBHP loading compared to before” value in assay [3] is “increased”. Besides, the “fluorescence intensity at the fluorescence wavelength of 380 nm on oxidation with hydrogen peroxide” value in assay [4] is “increase in the fluorescence intensity”. Also, the “oxidation with hydrogen peroxide in an aqueous solution” value in assay [5] (hydrogen peroxide) is recorded as “proceeds rapidly”. Besides, in assay [5] (tBHP), the “oxidation with tBHP in an aqueous solution” value was “proceeds rapidly”.
